The source of these data is patent publication US10004732B2 (Novartis AG, priority 2014, dated 2018).

In one experiment the target is PI 3-kinase gamma (Homo sapiens, UniProt P48736). Nature of the experiment: TR-FRET Adapta assay, assay E. Format: biochemical. The settings on record: for IC50: read-out: Assay E PI3Kγ IC50. In general terms: Time-resolved FRET reads energy transfer from a long-lived donor to a nearby acceptor.
Experiment [1] concerns the target T1, PI 3-kinase delta (Homo sapiens, UniProt O00329). Nature of the experiment: Cellular assay J1, p-Akt (S473) in Rat-1 cells, Surefire format. It counts as cell-based. The note with it: non-asterisked data: version J1 (Surefire format), Rat-1 cells; read-out: Assay J PI3Kδ IC50.
Target sequence in this assay (O00329 whole entry): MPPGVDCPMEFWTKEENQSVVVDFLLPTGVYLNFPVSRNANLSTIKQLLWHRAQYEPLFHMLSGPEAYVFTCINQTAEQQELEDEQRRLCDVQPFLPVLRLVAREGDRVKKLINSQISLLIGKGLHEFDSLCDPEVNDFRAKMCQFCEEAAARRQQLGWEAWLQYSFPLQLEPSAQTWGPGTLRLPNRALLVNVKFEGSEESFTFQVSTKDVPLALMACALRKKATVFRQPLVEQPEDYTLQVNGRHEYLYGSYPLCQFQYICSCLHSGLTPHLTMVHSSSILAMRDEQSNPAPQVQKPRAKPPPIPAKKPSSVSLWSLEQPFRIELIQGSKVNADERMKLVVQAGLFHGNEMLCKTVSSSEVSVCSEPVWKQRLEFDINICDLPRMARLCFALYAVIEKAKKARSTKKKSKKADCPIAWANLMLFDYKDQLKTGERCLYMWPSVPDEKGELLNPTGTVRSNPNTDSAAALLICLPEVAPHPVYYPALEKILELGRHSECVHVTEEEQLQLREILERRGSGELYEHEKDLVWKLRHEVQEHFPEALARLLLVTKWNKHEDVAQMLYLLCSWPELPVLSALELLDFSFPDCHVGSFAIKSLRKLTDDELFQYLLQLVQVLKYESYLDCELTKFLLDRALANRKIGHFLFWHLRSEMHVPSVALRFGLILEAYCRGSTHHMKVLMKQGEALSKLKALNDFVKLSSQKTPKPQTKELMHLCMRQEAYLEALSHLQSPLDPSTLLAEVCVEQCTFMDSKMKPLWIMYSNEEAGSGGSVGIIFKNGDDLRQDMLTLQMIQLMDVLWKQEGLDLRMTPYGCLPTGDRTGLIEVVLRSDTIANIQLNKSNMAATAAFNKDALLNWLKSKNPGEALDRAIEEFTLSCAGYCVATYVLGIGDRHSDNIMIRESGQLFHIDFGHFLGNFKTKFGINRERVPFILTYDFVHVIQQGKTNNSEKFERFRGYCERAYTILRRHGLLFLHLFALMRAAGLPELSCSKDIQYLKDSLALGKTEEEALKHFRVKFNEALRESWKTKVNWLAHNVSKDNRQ
Target sequence in this assay (Q63787 whole entry partner): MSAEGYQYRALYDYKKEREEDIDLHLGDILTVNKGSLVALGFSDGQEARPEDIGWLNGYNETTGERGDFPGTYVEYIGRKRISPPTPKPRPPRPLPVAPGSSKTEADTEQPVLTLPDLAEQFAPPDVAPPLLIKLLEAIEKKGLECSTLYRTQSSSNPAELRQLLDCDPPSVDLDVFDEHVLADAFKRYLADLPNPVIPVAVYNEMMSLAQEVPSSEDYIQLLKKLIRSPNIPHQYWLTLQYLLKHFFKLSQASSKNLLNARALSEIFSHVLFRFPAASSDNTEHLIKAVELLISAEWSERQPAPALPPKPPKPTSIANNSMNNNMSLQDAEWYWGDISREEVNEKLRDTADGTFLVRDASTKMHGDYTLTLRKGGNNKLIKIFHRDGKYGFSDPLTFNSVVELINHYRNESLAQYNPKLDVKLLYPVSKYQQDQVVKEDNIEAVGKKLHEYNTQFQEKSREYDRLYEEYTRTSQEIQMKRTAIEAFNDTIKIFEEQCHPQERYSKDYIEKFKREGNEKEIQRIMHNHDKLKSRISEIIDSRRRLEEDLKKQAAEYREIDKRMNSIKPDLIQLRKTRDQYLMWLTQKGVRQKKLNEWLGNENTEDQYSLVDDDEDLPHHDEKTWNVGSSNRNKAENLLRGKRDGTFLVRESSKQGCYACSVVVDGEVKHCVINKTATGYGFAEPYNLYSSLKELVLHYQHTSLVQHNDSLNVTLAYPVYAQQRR
Experiment [2] concerns the target T2, PI 3-kinase beta (Homo sapiens, UniProt P42338). Nature of the experiment: Cellular assay I1, p-Akt (S473) in Rat-1 cells, Surefire format. The settings on record: non-asterisked data: version I1 (Surefire format), Rat-1 cells; read-out: Assay I PI3Kβ IC50. Format: cell-based.
Target sequence in this assay (P42338 whole entry): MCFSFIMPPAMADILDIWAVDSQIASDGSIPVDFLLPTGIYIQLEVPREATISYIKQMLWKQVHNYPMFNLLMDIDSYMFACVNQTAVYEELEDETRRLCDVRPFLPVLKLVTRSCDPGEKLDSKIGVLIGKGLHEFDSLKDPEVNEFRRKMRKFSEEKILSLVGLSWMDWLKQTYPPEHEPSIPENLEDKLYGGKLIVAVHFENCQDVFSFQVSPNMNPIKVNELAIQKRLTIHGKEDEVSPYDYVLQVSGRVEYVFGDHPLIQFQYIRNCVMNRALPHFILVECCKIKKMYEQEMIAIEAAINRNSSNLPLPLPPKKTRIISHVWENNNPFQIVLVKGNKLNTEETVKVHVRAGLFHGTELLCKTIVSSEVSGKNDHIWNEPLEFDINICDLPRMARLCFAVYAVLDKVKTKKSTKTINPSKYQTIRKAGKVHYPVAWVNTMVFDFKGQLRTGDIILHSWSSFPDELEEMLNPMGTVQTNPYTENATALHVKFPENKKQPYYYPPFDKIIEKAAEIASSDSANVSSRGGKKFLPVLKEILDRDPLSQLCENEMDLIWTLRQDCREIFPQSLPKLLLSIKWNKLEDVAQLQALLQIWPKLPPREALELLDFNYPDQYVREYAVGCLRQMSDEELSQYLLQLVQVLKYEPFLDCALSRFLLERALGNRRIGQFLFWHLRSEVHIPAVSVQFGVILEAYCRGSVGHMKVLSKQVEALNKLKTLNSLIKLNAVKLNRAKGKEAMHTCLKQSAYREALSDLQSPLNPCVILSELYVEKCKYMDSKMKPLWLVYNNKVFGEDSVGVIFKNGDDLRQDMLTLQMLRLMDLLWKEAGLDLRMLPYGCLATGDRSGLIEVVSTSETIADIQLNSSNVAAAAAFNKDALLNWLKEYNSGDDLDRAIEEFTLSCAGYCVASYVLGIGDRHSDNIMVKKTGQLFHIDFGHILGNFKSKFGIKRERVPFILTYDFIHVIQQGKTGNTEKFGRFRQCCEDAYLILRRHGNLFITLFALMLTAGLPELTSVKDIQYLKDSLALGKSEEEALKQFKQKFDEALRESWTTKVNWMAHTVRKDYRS
Target sequence in this assay (Q63787 whole entry partner): as the sequence (Q63787 whole entry partner) above
In experiment [3] the target is T3, PI 3-kinase alpha (Homo sapiens, UniProt P42336). Kind of experiment: Cellular assay H1, p-Akt (S473) in Rat-1 cells, Surefire format. Format: cell-based. The settings on record: non-asterisked data: version H1 (Surefire format), Rat-1 cells; read-out: Assay H PI3Kα IC50.
Target sequence in this assay (P42336 whole entry): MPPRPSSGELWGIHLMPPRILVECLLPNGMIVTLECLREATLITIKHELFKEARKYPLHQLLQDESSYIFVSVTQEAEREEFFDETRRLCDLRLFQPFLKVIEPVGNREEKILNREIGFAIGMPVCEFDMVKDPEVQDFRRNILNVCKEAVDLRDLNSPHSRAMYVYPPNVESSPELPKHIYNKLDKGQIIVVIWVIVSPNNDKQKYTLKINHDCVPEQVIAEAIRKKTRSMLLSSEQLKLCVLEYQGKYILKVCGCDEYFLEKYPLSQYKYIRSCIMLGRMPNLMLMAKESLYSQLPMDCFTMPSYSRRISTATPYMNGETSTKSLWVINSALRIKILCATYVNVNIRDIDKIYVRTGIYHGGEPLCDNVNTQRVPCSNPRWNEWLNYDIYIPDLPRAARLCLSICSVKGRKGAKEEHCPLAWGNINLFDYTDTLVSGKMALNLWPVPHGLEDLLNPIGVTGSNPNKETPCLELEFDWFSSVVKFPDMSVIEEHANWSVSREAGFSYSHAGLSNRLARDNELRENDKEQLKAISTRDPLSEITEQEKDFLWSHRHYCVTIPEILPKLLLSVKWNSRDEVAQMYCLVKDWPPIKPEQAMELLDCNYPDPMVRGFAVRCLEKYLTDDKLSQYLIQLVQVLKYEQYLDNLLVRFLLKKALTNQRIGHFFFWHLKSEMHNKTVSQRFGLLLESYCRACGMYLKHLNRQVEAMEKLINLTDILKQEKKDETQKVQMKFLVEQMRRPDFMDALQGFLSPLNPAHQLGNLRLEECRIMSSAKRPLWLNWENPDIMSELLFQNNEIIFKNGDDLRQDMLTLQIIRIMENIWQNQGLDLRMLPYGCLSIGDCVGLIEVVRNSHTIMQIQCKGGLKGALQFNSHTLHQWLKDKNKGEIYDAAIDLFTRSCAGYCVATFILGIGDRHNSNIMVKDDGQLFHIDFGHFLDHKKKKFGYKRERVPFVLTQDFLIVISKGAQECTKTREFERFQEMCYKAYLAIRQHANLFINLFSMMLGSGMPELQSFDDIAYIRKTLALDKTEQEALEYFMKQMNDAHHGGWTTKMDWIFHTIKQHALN
Target sequence in this assay (Q63787 whole entry partner): as the sequence (Q63787 whole entry partner) above
The target of the next experiment is mTOR (Homo sapiens, UniProt P42345). Nature of the experiment: Lanthascreen kinase binding assay, assay G. The settings on record: read-out: Assay G mTOR IC50.
In experiment [4] the target is T3, PI 3-kinase alpha. Nature of the experiment: Kinase Glo Luminescent Kinase Assay (Kglo), assay A. It counts as biochemical. The settings on record: read-out: Assay A PI3Kα IC50. (Kinase-Glo reads ATP consumption through a luciferase reaction.)
Target sequence in this assay (P42336 whole entry): as the sequence (P42336 whole entry) above
Experimental: (§1) Kinase Glo Luminescent Kinase Assay (Kglo) for Pb 3-Kinase Alpha (A), Pb 3-Kinase Beta (B), Vps34 (C), Pb 4-Kinase Beta (D)
(§2) The Kinase Glo Luminescent Kinase Assay (Promega, Madison/Wis., USA) is a homogeneous HTS method of measuring kinase activity by quantifying the amount of ATP remaining in solution following a kinase reaction.
(§3) L-α-phosphatidylinositol (PI), provided as 10 mg/ml solution in methanol, was transferred into a glass tube and dried under a nitrogen beam. It was then resuspended in 3% OctylGlucoside (1-0-n-octyl-beta-D-glucopyranoside) by vortexing and stored at 4° C. 5 μL of a mix of PI/OctylGlucoside with the PI 3-kinase alpha and PI 3-kinase beta subtypes, or Vps34 or PI 4-kinase beta were added. Kinase reactions were started by the addition of 5 μl of an ATP-mix containing in a final volume 10 μL 10 mM TRIS-HCl pH 7.5, 3 mM MgCl2, 50 mM NaCl, 0.05% CHAPS, 1 mM DTT and 1 μM ATP at room temperature.
(§4) All fits were performed with the program XLfit4 (ID Business Solutions, Guildford, UK).
Experiment [5] deals with T2, PI 3-kinase beta. Nature of the experiment: Kinase Glo Luminescent Kinase Assay (Kglo), assay B. Format: biochemical. The note with it: read-out: Assay B PI3Kβ IC50.
Target sequence in this assay (P42338 whole entry): as the sequence (P42338 whole entry) above
Target sequence in this assay (P27986 461-568 partner): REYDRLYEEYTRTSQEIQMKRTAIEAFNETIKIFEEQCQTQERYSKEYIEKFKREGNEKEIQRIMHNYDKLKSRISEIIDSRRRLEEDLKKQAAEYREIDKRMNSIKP
Experimental: as §1, §2, §3, §4
The next experiment concerns the target PI 4-kinase beta (Homo sapiens, UniProt Q9UBF8). Kind of experiment: Kinase Glo Luminescent Kinase Assay (Kglo), assay D. Format: biochemical. The note with it: read-out: Assay D PI4Kβ IC50.
The next experiment addresses Vps34 (Homo sapiens, UniProt Q8NEB9). Kind of experiment: Kinase Glo Luminescent Kinase Assay (Kglo), assay C. It counts as biochemical. The note with it: read-out: Assay C VPS34 IC50.
Experiment [6] has as its target T1, PI 3-kinase delta. Kind of experiment: TR-FRET Adapta assay, assay F.
Target sequence in this assay (O00329 whole entry): as the sequence (O00329 whole entry) above
Target sequence in this assay (P27986 461-568 partner): as the sequence (P27986 461-568 partner) above

Experimental for PI 3-kinase gamma: TR-FRET Adapta Assay for PI 3-Kinase Gamma (E), PI 3-Kinase Delta (F)
The TR-FRET Adapta™ Universal Kinase Assay Kit was purchased from Invitrogen Corporation (Carlsbad/CA, USA) (Cat. No. PV5099).
PIK3CD substrate phosphatidylinositol (PI) was obtained from Invitrogen (vesicules consisting of 2 mM phosphatidylinositol (PI) in 50 mM HEPES pH7.5; Cat. No. PV5371). PIK3CG substrate phosphatidylinositol-4,5-bisphosphate (PIP(4,5)2 was obtained from Invitrogen (PIP2:PS large unilamellar vesicules consisting of 1 mM PIP2: 19 mM PS in 50 mM HEPES pH7.5, 3 mM MgCl2, 1 mM EGTA; Cat. No. PV5100).
Time-Resolved Fluorescence Resonance Energy Transfer (TR-FRET) is a technology based on energy transfer between two adjacent dyes, from an excited electron in one dye (the donor) to an electron of an adjacent dye (the acceptor) through resonance, then released as a photon. This energy transfer is detected by an increase in the fluorescence emission of the acceptor, and a decrease in the fluorescence emission of the donor. TR-FRET assays for protein kinases use a long-lifetime lanthanide Terbium or Europium chelates as the donor species which overcome interference from compound autofluorescence or light scatter from precipitated compounds, by introducing a delay after excitation by a flashlamp excitation source. Results are often expressed as a ratio of the intensities of the acceptor and donor fluorophores. The ratiometric nature of such a value corrects for differences in assay volumes between wells, as well as corrects for quenching effects due to colored compounds. The Adapta™ assay can be divided into two phases: a kinase reaction phase and an ADP detection phase. In the kinase reaction phase, all kinase reaction components are added to the well and the reaction is allowed to incubate for a set period of time specific for each kinase. […] In the presence of an inhibitor, the amount of ADP formed by the kinase reaction is reduced, and the resulting intact antibody-tracer interaction maintains a high TR-FRET signal.
50 nL of compound dilutions were dispensed onto white 384-well small volume polystyrene plate. Then 5 μL of either PI 3-kinase gamma or PI 3-kinase delta and lipid substrate (PI or PIP2:PS) followed by 5 μL of ATP (final assay volume 10 μL) are incubated at RT. The standard reaction buffer for the Adapta™ TR-FRET assay contained 10 mM Tris-HCl pH 7.5, 3 mM MgCl2, 50 mM NaCl, 1 mM DTT, 0.05% CHAPS 3-[(3-cholamidopropyl)dimethylammonio]-1-propanesulfonate).
Data are analyzed using Excel fit software or Graphpad Prism. IC50 values were derived by fitting a sigmoidal dose-response curve to a plot of assay readout over inhibitor concentration. All fits were performed with the program XLfit4 (ID Business Solutions, Guildford, UK). […] All fits were performed with the program XLfit4 (ID Business Solutions, Guildford, UK).
Experimental for Vps34: as §1, §2, §3, §4
Experimental for mTOR: Lanthascreen™ Kinase Binding Assay for mTOR (G)
Binding of an inhibitor to the kinase competes for binding with the tracer, resulting in a loss of FRET.
50 nL of compound dilutions were dispensed onto white 384-well small volume polystyrene plate.

On to `Cc1ccc(S(=O)(=O)NCCC(C)(C)O)cc1-c1cnc(N)c(-c2cccnc2OC(C)C)n1` [Reference example 119.12, 3-(5-amino-6-(2-isopropoxypyridin-3-yl)pyrazin-2-yl)-N-(3-hydroxy-3-methylbutyl)-4-methylbenzenesulfonamide], for which the “activity in assay E” value at PI 3-kinase gamma (TR-FRET Adapta, PI 3-kinase gamma) is reported as “not shown any activity”. Besides, the IC50 at PI 3-kinase delta [1], on PI 3-kinase beta [2] and at PI 3-kinase alpha [3] was over 10 µM throughout.
Consider `Cc1ccc(S(=O)(=O)NCCC(C)(C)O)cc1-c1cnc(N)c(-c2cnc(Cl)cc2C)n1` [Example 119.9], for which the IC50 (commonly the concentration at which inhibition is half-maximal) on mTOR is over 9.1 µM; on PI 3-kinase alpha [4], 0.33 µM; at PI 3-kinase beta [5], 7.78 µM; on PI 4-kinase beta, 0.69 µM; at PI 3-kinase gamma it was 0.178 µM; on PI 3-kinase delta [1], 4.23 µM. Besides, the IC50 on PI 3-kinase beta [2] was 3.07 µM; on PI 3-kinase alpha [3], 1.92 µM; at Vps34, over 9.1 µM; at PI 3-kinase delta [6] (read-out: Assay F PI3Kδ IC50), 0.9 µM.
Regarding `Cc1ccc(S(=O)(=O)NCCC(C)(C)O)cc1-c1cnc(N)c(-c2ccc(N3CCOCC3)nc2)n1` [Example 119.21], the IC50 is over 9.1 µM on mTOR; 1.73 µM at PI 3-kinase alpha [4]; over 9.1 µM on PI 3-kinase beta [5]; 3.83 µM on PI 4-kinase beta; 0.401 µM at PI 3-kinase gamma; 7.48 µM at PI 3-kinase delta [1]. Besides, the IC50 at PI 3-kinase beta [2] was over 10 µM; at PI 3-kinase alpha [3], 5.16 µM; at Vps34, over 9.1 µM; at PI 3-kinase delta [6] (read-out: Assay F PI3Kδ IC50), 2.18 µM.
Consider `Cc1ccc(S(=O)(=O)NCCC(C)(C)O)cc1-c1cnc(N)c(-c2ccncc2F)n1` [Example 119.11], for which the IC50 on mTOR was over 9.1 µM; on PI 3-kinase alpha [4], 0.45 µM; at PI 3-kinase beta [5], over 9.1 µM; at PI 4-kinase beta, over 9.1 µM; at PI 3-kinase gamma it was 0.303 µM; on PI 3-kinase delta [1], 6.94 µM. The IC50 at PI 3-kinase beta [2] is 3.56 µM; at PI 3-kinase alpha [3], 2.54 µM; on Vps34, over 9.1 µM; at PI 3-kinase delta [6] (read-out: Assay F PI3Kδ IC50) it was 1.1 µM.
On to `Cc1ccc(S(=O)(=O)NCCC(C)(C)O)cc1-c1cnc(N)c(-c2cnn(C)c2C)n1` [Example 119.19], for which the IC50 was over 9.1 µM at mTOR; over 9.1 µM at PI 3-kinase alpha [4]; over 9.1 µM at PI 3-kinase beta [5]; over 9.1 µM on PI 4-kinase beta; 3.47 µM at PI 3-kinase gamma; over 10 µM on PI 3-kinase delta [1]. Also, the IC50 on PI 3-kinase beta [2] is over 10 µM; on PI 3-kinase alpha [3], over 10 µM; on Vps34, over 9.1 µM; at PI 3-kinase delta [6] (read-out: Assay F PI3Kδ IC50), over 9.1 µM.
For the compound `Cc1ccc(S(=O)(=O)NCCC(C)(C)O)cc1-c1cnc(N)c(-c2ccc(F)nc2)n1` [Example 119.18], the IC50 on mTOR is over 9.1 µM; on PI 3-kinase alpha [4] it was 0.49 µM; at PI 3-kinase beta [5] it was 8.04 µM; at PI 4-kinase beta, 8.19 µM; at PI 3-kinase gamma, 0.248 µM; at PI 3-kinase delta [1], 1.3 µM. Moreover, the IC50 is 4.48 µM on PI 3-kinase beta [2], 1.32 µM on PI 3-kinase alpha [3], over 9.1 µM at Vps34 and 0.58 µM at PI 3-kinase delta [6] (read-out: Assay F PI3Kδ IC50).
On to `Cc1ccc(S(=O)(=O)NCC2CN(C)CCO2)cc1-c1cnc(N)c(-c2cn(C)nc2C)n1` (stereo not drawn) [Example 128.5, 3-(5-Amino-6-(1,3-dimethyl-1H-pyrazol-4-yl)pyrazin-2-yl)-4-methyl-N-((4-methylmorpholin-2-yl)methyl)benzenesulfonamide], for which the IC50 at PI 3-kinase alpha [4] was 2.3 µM; on PI 3-kinase beta [5], 9.6 µM; on PI 4-kinase beta, over 10 µM; on PI 3-kinase gamma it was 0.37 µM; at PI 3-kinase delta [1], over 10 µM; at PI 3-kinase beta [2], over 10 µM. For the same compound, the IC50 was over 10 µM on PI 3-kinase alpha [3], over 10 µM on Vps34 and 2.2 µM on PI 3-kinase delta [6] (read-out: Assay F PI3Kδ IC50).
Turning to `Cc1ccc(S(=O)(=O)NCCC(C)(C)O)cc1-c1cnc(N)c(-c2ccc(N3CCCC3)nc2)n1` [Example 119.17], the IC50 on mTOR is over 9.1 µM; on PI 3-kinase alpha [4] it was 1.45 µM; at PI 3-kinase beta [5], over 9.1 µM; at PI 4-kinase beta, 1.56 µM; at PI 3-kinase gamma, 0.362 µM; on PI 3-kinase delta [1], 7.16 µM. Besides, the IC50 is 6.17 µM at PI 3-kinase beta [2], 2.81 µM on PI 3-kinase alpha [3], over 9.1 µM at Vps34 and 2.54 µM at PI 3-kinase delta [6] (read-out: Assay F PI3Kδ IC50).
As for `Cc1ccc(S(=O)(=O)NCCC(C)(C)O)cc1-c1cnc(N)c(-c2cc(C(F)(F)F)nn2C)n1` [Example 119, 3-(5-Amino-6-(1-methyl-3-(trifluoromethyl)-1H-pyrazol-5-yl)pyrazin-2-yl)-N-(3-hydroxy-3-methylbutyl)-4-methylbenzenesulfonamide], the IC50 on mTOR was 4.31 µM; at PI 3-kinase alpha [4], 0.6 µM; on PI 3-kinase beta [5] it was over 9.1 µM; at PI 4-kinase beta, over 9.1 µM; at PI 3-kinase gamma it was 0.118 µM; on PI 3-kinase delta [1], 1.76 µM. Moreover, the IC50 was 3.06 µM on PI 3-kinase beta [2], 1.64 µM at PI 3-kinase alpha [3], over 9.1 µM on Vps34 and 0.71 µM on PI 3-kinase delta [6] (read-out: Assay F PI3Kδ IC50).
As to `COc1ccc(-c2nc(-c3cc(S(=O)(=O)NCCC(C)(C)O)ccc3C)cnc2N)c(C)n1` [Example 119.14], the IC50 was 8.53 µM on mTOR; 1.16 µM on PI 3-kinase alpha [4]; over 9.1 µM at PI 3-kinase beta [5]; 7.35 µM at PI 4-kinase beta; 0.667 µM at PI 3-kinase gamma; 4.96 µM on PI 3-kinase delta [1]. Besides, the IC50 on PI 3-kinase beta [2] is 4.39 µM; on PI 3-kinase alpha [3], 3.14 µM; at Vps34, over 9.1 µM; on PI 3-kinase delta [6] (read-out: Assay F PI3Kδ IC50), 1.44 µM.
For the compound `Cc1cc(-c2nc(-c3cc(S(=O)(=O)NC4CCNC(=O)C4)ccc3C)cnc2N)ccn1` (stereo not drawn) [Example 134, 3-(5-Amino-6-(2-methylpyridin-4-yl)pyrazin-2-yl)-4-methyl-N-(2-oxopiperidin-4-yl)benzenesulfonamide], the IC50 on mTOR was over 9.1 µM; at PI 3-kinase alpha [4] it was 0.4 µM; at PI 3-kinase beta [5] it was 4.33 µM; at PI 4-kinase beta, 7.17 µM; on PI 3-kinase gamma, 0.055 µM; on PI 3-kinase delta [1] it was over 10 µM. Besides, the IC50 was over 10 µM on PI 3-kinase beta [2], over 10 µM at PI 3-kinase alpha [3], over 9.1 µM on Vps34 and 0.35 µM at PI 3-kinase delta [6] (read-out: Assay F PI3Kδ IC50).
As for `Cc1ccc(S(=O)(=O)NCC2COCCN2C)cc1-c1cnc(N)c(-c2cn(C)nc2C)n1` (single isomer, unassigned) [Example 128.3b, (R)-3-(5-Amino-6-(1,3-dimethyl-1H-pyrazol-4-yl)pyrazin-2-yl)-4-methyl-N-((4-methylmorpholin-3-yl)methyl)benzenesulfonamide or (S)-3-(5-Amino-6-(1,3-dimethyl-1H-pyrazol-4-yl)pyrazin-2-yl)-4-methyl-N-((4-methylmorpholin-3-yl)methyl)benzenesulfonamide], the IC50 was 0.37 µM at PI 3-kinase alpha [4]; 4.6 µM on PI 4-kinase beta; 0.055 µM at PI 3-kinase gamma; 3.82 µM on PI 3-kinase delta [1]; 4.97 µM at PI 3-kinase alpha [3]; over 10 µM on Vps34. The compound further had an IC50 at PI 3-kinase delta [6] of 0.54 µM.
With `Cc1cncc(-c2nc(-c3cc(S(=O)(=O)NCCC(C)(C)O)ccc3C)cnc2N)c1` [Example 119.7], the half-inhibitory concentration (IC50) was 4.32 µM at mTOR; 2.98 µM at PI 3-kinase alpha [4]; over 9.1 µM at PI 3-kinase beta [5]; 7.96 µM at PI 4-kinase beta; 0.278 µM on PI 3-kinase gamma; 5.93 µM on PI 3-kinase delta [1]. For the same compound, the IC50 on PI 3-kinase beta [2] is 4.05 µM; on PI 3-kinase alpha [3], 6.97 µM; at Vps34, over 9.1 µM; on PI 3-kinase delta [6] (read-out: Assay F PI3Kδ IC50), 0.72 µM.
